Measured values taken from publication PMC6689897, “Drugging an undruggable pocket on KRAS” (Proceedings of the National Academy of Sciences of the …, 2019).

Assays:
GTP-KRASG12D::SOS1 = GTP-KRASG12D::SOS1 (Homo sapiens, UniProt P01116, G12D); test: Alpha Screen PPI assay; assay type: biochemical; settings: duplicate
Description: page 6: 217 The coordinates and structure factors of the structures have been deposited at the 218 Protein Data Bank with the accession codes PDB Code 6GJ5, 6GJ6, 6GJ7, 6GJ8. 219 220 Alpha Screen Assays 221 Measurements of various protein-protein interactions were performed using the Alpha 222 Screen technology developed by Perkin Elmer. Recombinant RAS proteins (H-, […] RAS variants; all KRAS variants are based on KRAS isoform 4B (uniprot id P01116-2); 224 KRAS (G12D) 1-169, N-terminal 6His-tag, C-terminal avi-tag was from Xtal 225 BioStructures, Inc., KRAS (G12C) 1-169, C-terminal avi-tag, biotinylated, mutations: 226 C51S, C80L, C118S, NRAS(wt) 1-172, C-terminal avi-tag, biotinylated; HRAS(wt) 1- 227 166, C-terminal avi-tag, biotinylated). Biotinylation was performed in vitro with 228 recombinant BirA biotin-protein ligase as recommended by the manufacturer (Avidity 229 LLC, Aurora, Colorado, USA). Interacting proteins such as SOS1 (564-1049, N-terminal 230 GST-tag, TEV cleavage site), cRaf (1-303, N-terminal GST-tag, TEV cleavage site) and 231 PI3KA- RBD (160-317, N-term-HIS_GST-tag) were expressed as glutathione S 232 transferase (GST) fusions. […] Single oxygen induced fluorescence was 246 measured at an Enspire multimode plate reader (Perkin Elmer) according to the 247 manufacturer's recommendations. Data were analyzed using the GraphPad Prism data 248 software. […]

GTP-KRASG12C::PI3Kα = GTP-KRASG12C::PI3Kα (Homo sapiens, UniProt P01116, C118S/C51S/C80L/G12C); test: Alpha Screen PPI assay; assay type: biochemical; settings: duplicate, read-out: IC50 GTP-KRASG12C::PI3K
GTP-KRASG12C::PI3Kα, sequence (P01116 1-169 isoform P01116-2 G12C/C51S/C80L/C118S): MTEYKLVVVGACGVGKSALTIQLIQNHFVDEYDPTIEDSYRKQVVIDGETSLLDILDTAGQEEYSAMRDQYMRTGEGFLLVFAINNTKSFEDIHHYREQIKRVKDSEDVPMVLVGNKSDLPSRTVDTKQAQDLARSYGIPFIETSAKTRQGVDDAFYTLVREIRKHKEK
Description: 221 Measurements of various protein–protein interactions were performed using the Alpha
222 Screen technology developed by Perkin Elmer. Recombinant RAS proteins (H-, N-, K-
223 RAS variants; all KRAS variants are based on KRAS isoform 4B (uniprot id P01116-2);
224 KRAS (G12D) 1-169, N-terminal 6His-tag, C-terminal avi-tag was from Xtal
225 BioStructures, Inc., KRAS (G12C) 1-169, C-terminal avi-tag, biotinylated, mutations:
226 C51S, C80L, C118S, NRAS(wt) 1-172, C-terminal avi-tag, biotinylated; HRAS(wt) 1-
227 166, C-terminal avi-tag, biotinylated). Biotinylation was performed in vitro with
228 recombinant BirA biotin-protein ligase as recommended by the manufacturer (Avidity
229 LLC, Aurora, Colorado, USA). Interacting proteins such as SOS1 (564-1049, N-terminal
230 GST-tag, TEV cleavage site), cRaf (1-303, N-terminal GST-tag, TEV cleavage site) and
231 PI3KA- RBD (160-317, N-term-HIS_GST-tag) were expressed as glutathione S
232 transferase (GST) fusions. Accordingly, the Alpha Screen beads were glutathione coated
233 Alpha Lisa acceptor beads (Perkin Elmer AL 109 R) and Alpha Screen Streptavidin
234 conjugated donor beads (Perkin Elmer 6760002L). Nucleotides were purchased from
236 interaction assays were carried out in PBS, containing 0.1% bovine serum albumin,
237 0,05% Tween-20 and 10 µM of the corresponding nucleotide. Assays were carried out in
238 white ProxiPlate-384 Plus plates (Perkin Elmer #6008280) in a final volume of 20 µL. In
239 brief, biotinylated RAS proteins (10 nM final concentration) and GST-SOS1, GST-PI3K
240 or GST-CRAF (10 nM final) were mixed with glutathione acceptor beads (5 µg/mL final
241 concentration) in buffer, containing the corresponding nucleotides (GDP or GTP for
242 assays containing SOS1, only GTP for interaction assays containing PI3K or CRAF) and
243 were incubated for 30 min at room temperature. After addition of streptavidin donor
244 beads (5 µg/mL final concentration) under green light, the mixture was further incubated
245 for 60 min in the dark at room temperature. Single oxygen induced fluorescence was
246 measured at an Enspire multimode plate reader (Perkin Elmer) according to the
247 manufacturer’s recommendations. […]

GTP-KRASG12D::SOS1, sequence (P01116 1-169 isoform P01116-2 G12D): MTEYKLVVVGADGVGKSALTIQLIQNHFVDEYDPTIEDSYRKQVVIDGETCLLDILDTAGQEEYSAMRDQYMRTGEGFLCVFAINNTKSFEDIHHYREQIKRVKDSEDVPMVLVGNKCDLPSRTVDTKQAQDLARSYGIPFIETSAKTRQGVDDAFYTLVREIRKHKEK

Structure (SMILES) | IC50 (GTP-KRASG12D::SOS1) | IC50 (GTP-KRASG12C::PI3Kα)
C=CC(=O)N1CCN(c2ncnc3c(F)c(-c4c(O)cccc4F)c(Cl)cc23)CC1 [ARS-1620, reference compound] | > 10 µM | > 10 µM
Cn1cnc(Cn2ccc3ccc(CNCc4[nH]c5ccccc5c4[C@H]4NC(=O)c5ccc(O)cc54)cc32)c1 [Compound 1] | 0.49 µM | 0.1 µM
